Experimental data: US20210254272A1, “TEXTILES HAVING ANTIMICROBIAL PROPERTIES” (Livinguard AG, priority 2015, published 2021)

Key:
[1] = Leaching test: 100 g fabric soaked in 10 liters stagnant distilled water, 3 days (72 hours); type: physicochemical; details: for Leaching of active ingredients / Leaching Test-Leaching of active ingredients: pad process; for Leaching of active ingredients: cured 180° C. 2 min; for Leaching Test-Leaching of active ingredients: 2 min
Method in brief: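 Test and control fabrics were soaked together in a closed jar. Leached substances in the water were then determined by standard analytical methods.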

[2] = Leaching: 10 grams fabric in 100 milliliters distilled water, 7 days, GC-MS; type: physicochemical
Experimental: To test for a potential leaching of the antimicrobial agents fixed to the textile material, the following test was performed. A test fabric of polyester 65%/cotton 35% with 210 g/m2 was treated with polyhexamethylenebiguanide (PHMB) 0.5%, silver chloride 0.075%, octadecylaminomethyl trihydroxysilylpropyl ammonium chloride (organosilane) 0.4%, and propiconazole 0.5%
The treated textile material was put into distilled water at a ratio of 1:10. Specifically, a fabric of 10 grams was soaked in 100 milliliters of distilled water. The fabric was incubated in the water for 7 days at room temperature, i.e. between 21 and 25° C.
Following said incubation time, the fabric was removed from the water and the exposed water was tested for the presence of the above five active ingredients using gas chromatography-mass spectrometry (GC-MS).

## CCCC1COC(Cn2cncn2)(c2ccc(Cl)cc2Cl)O1 (stereo not drawn) [Propiconazole, propiconazole]
[1]; exhaust 80° C., 60 min, dosage 1% o.w.f (test up to 5% o.w.f)
  Leaching of active ingredients (in ppm): 3 ppm
[1]; exhaust 80° C., 60 min, dosage 2% o.w.f
  Leaching of active ingredients (in ppm): 26 ppm
[1]; exhaust 80° C., 60 min, dosage 3% o.w.f
  Leaching of active ingredients (in ppm): 40 ppm
[1]; exhaust 80° C., 60 min, dosage 4% o.w.f
  Leaching of active ingredients (in ppm): 47 ppm
[1]; exhaust 80° C., 60 min, dosage 5% o.w.f
  Leaching of active ingredients (in ppm): 73 ppm
[1]; exhaust 80 ° C., solution dosage 1% o.w.f, process time 10 min
  Leaching of active ingredients (in ppm): 38 ppm
[1]; exhaust 80 ° C., solution dosage 1% o.w.f, process time 20 min
  Leaching of active ingredients (in ppm): 26 ppm
[1]; exhaust 80 ° C., solution dosage 1% o.w.f, process time 30 min
  Leaching of active ingredients (in ppm): 22 ppm
[1]; exhaust 80 ° C., solution dosage 1% o.w.f, process time 40 min
  Leaching of active ingredients (in ppm): 15 ppm
[1]; exhaust 80 ° C., solution dosage 1% o.w.f, process time 50 min
  Leaching of active ingredients (in ppm): 14 ppm
[1]; exhaust 80 ° C., solution dosage 1% o.w.f, process time 55 min
  Leaching of active ingredients (in ppm): 7 ppm
[1]; exhaust 80 ° C., solution dosage 1% o.w.f, process time 60 min
  Leaching of active ingredients (in ppm): 3 ppm
[1]; exhaust 80 ° C., solution dosage 1% o.w.f, process time 70 min
  Leaching of active ingredients (in ppm): 3 ppm
[1]; exhaust 80 ° C., solution dosage 1% o.w.f, process time 80 min
  Leaching of active ingredients (in ppm): 4 ppm
[1]; exhaust 80 ° C., solution dosage 1% o.w.f, process time 90 min
  Leaching of active ingredients (in ppm): 7 ppm
[1]; from Experimental examples I.1 and I.4
  limit on the quantity of the agent that can be adhered to the textile in a non-leaching or substantially non-leaching manner: about 0.25 % o.w.f.
[1]; mixture 1 gm/lit each
  Leaching of active ingredients: 9 ppm
[1]; mixture 1 gm/lit each, after Washing
  Leaching of active ingredients: 0.4 ppm
[1]; mixture 5 gm/lit each
  Leaching of active ingredients: 13 ppm
[1]; mixture 5 gm/lit each, after Washing
  Leaching of active ingredients: 0.7 ppm
[1]; mixture 10 gm/lit each
  Leaching of active ingredients: 24 ppm
[1]; mixture 10 gm/lit each, after Washing
  Leaching of active ingredients: 0.9 ppm
[1]; single agent 5 gm/lit, curing 120° C.
  Leaching Test-Leaching of active ingredients: 9 ppm
[1]; single agent 5 gm/lit, curing 140° C.
  Leaching Test-Leaching of active ingredients: 7 ppm
[1]; single agent 5 gm/lit, curing 150° C.
  Leaching Test-Leaching of active ingredients: 5 ppm
[1]; single agent 5 gm/lit, curing 160° C.
  Leaching Test-Leaching of active ingredients: 4 ppm
[1]; single agent 5 gm/lit, curing 180° C.
  Leaching Test-Leaching of active ingredients: 1 ppm
[1]; single agent 10 gm/lit, curing 120° C.
  Leaching Test-Leaching of active ingredients: 15 ppm
[1]; single agent 10 gm/lit, curing 140° C.
  Leaching Test-Leaching of active ingredients: 14 ppm
[1]; single agent 10 gm/lit, curing 150° C.
  Leaching Test-Leaching of active ingredients: 13 ppm
[1]; single agent 10 gm/lit, curing 160° C.
  Leaching Test-Leaching of active ingredients: 8 ppm
[1]; single agent 10 gm/lit, curing 180° C.
  Leaching Test-Leaching of active ingredients: 2 ppm
[1]; solution dosage 0.10% o.w.f, exhaust temperature 40° C., process time 60 min
  Leaching of active ingredient (in ppm): 0 ppm
[1]; solution dosage 0.10% o.w.f, exhaust temperature 60° C., process time 60 min
  Leaching of active ingredient (in ppm): 0 ppm
[1]; solution dosage 0.10% o.w.f, exhaust temperature 65° C., process time 60 min
  Leaching of active ingredient (in ppm): 0 ppm
[1]; solution dosage 0.10% o.w.f, exhaust temperature 70° C., process time 60 min
  Leaching of active ingredient (in ppm): 0 ppm
[1]; solution dosage 0.10% o.w.f, exhaust temperature 75° C., process time 60 min
  Leaching of active ingredient (in ppm): 0 ppm
[1]; solution dosage 0.10% o.w.f, exhaust temperature 80° C., process time 60 min
  Leaching of active ingredient (in ppm): 0 ppm
[1]; solution dosage 0.10% o.w.f, exhaust temperature 85° C., process time 60 min
  Leaching of active ingredient (in ppm): 1 ppm
[1]; solution dosage 0.10% o.w.f, exhaust temperature 90° C., process time 60 min
  Leaching of active ingredient (in ppm): 2 ppm
[1]; solution dosage 0.10% o.w.f, exhaust temperature 95° C., process time 60 min
  Leaching of active ingredient (in ppm): 3 ppm
[1]; solution dosage 0.20% o.w.f, exhaust temperature 40° C., process time 60 min
  Leaching of active ingredient (in ppm): 0 ppm
[1]; solution dosage 0.20% o.w.f, exhaust temperature 60° C., process time 60 min
  Leaching of active ingredient (in ppm): 0 ppm
[1]; solution dosage 0.20% o.w.f, exhaust temperature 65° C., process time 60 min
  Leaching of active ingredient (in ppm): 0 ppm
[1]; solution dosage 0.20% o.w.f, exhaust temperature 70° C., process time 60 min
  Leaching of active ingredient (in ppm): 0 ppm
[1]; solution dosage 0.20% o.w.f, exhaust temperature 75° C., process time 60 min
  Leaching of active ingredient (in ppm): 0 ppm
[1]; solution dosage 0.20% o.w.f, exhaust temperature 80° C., process time 60 min
  Leaching of active ingredient (in ppm): 0 ppm
[1]; solution dosage 0.20% o.w.f, exhaust temperature 85° C., process time 60 min
  Leaching of active ingredient (in ppm): 2 ppm
[1]; solution dosage 0.20% o.w.f, exhaust temperature 90° C., process time 60 min
  Leaching of active ingredient (in ppm): 4 ppm
[1]; solution dosage 0.20% o.w.f, exhaust temperature 95° C., process time 60 min
  Leaching of active ingredient (in ppm): 4 ppm
[1]; solution dosage 0.50% o.w.f, exhaust temperature 40° C., process time 60 min
  Leaching of active ingredient (in ppm): 0 ppm
[1]; solution dosage 0.50% o.w.f, exhaust temperature 60° C., process time 60 min
  Leaching of active ingredient (in ppm): 1 ppm
[1]; solution dosage 0.50% o.w.f, exhaust temperature 65° C., process time 60 min
  Leaching of active ingredient (in ppm): 1 ppm
[1]; solution dosage 0.50% o.w.f, exhaust temperature 70° C., process time 60 min
  Leaching of active ingredient (in ppm): 1 ppm
[1]; solution dosage 0.50% o.w.f, exhaust temperature 75° C., process time 60 min
  Leaching of active ingredient (in ppm): 1 ppm
[1]; solution dosage 0.50% o.w.f, exhaust temperature 80° C., process time 60 min
  Leaching of active ingredient (in ppm): 1 ppm
[1]; solution dosage 0.50% o.w.f, exhaust temperature 85° C., process time 60 min
  Leaching of active ingredient (in ppm): 3 ppm
[1]; solution dosage 0.50% o.w.f, exhaust temperature 90° C., process time 60 min
  Leaching of active ingredient (in ppm): 5 ppm
[1]; solution dosage 0.50% o.w.f, exhaust temperature 95° C., process time 60 min
  Leaching of active ingredient (in ppm): 6 ppm
[1]; solution dosage 0.80% o.w.f, exhaust temperature 40° C., process time 60 min
  Leaching of active ingredient (in ppm): 0 ppm
[1]; solution dosage 0.80% o.w.f, exhaust temperature 60° C., process time 60 min
  Leaching of active ingredient (in ppm): 2 ppm
[1]; solution dosage 0.80% o.w.f, exhaust temperature 65° C., process time 60 min
  Leaching of active ingredient (in ppm): 1 ppm
[1]; solution dosage 0.80% o.w.f, exhaust temperature 70° C., process time 60 min
  Leaching of active ingredient (in ppm): 2 ppm
[1]; solution dosage 0.80% o.w.f, exhaust temperature 75° C., process time 60 min
  Leaching of active ingredient (in ppm): 2 ppm
[1]; solution dosage 0.80% o.w.f, exhaust temperature 80° C., process time 60 min
  Leaching of active ingredient (in ppm): 1 ppm
[1]; solution dosage 0.80% o.w.f, exhaust temperature 85° C., process time 60 min
  Leaching of active ingredient (in ppm): 4 ppm
[1]; solution dosage 0.80% o.w.f, exhaust temperature 90° C., process time 60 min
  Leaching of active ingredient (in ppm): 6 ppm
[1]; solution dosage 0.80% o.w.f, exhaust temperature 95° C., process time 60 min
  Leaching of active ingredient (in ppm): 7 ppm
[1]; solution dosage 1.00% o.w.f, exhaust temperature 40° C., process time 60 min
  Leaching of active ingredient (in ppm): 0 ppm
[1]; solution dosage 1.00% o.w.f, exhaust temperature 60° C., process time 60 min
  Leaching of active ingredient (in ppm): 8 ppm
[1]; solution dosage 1.00% o.w.f, exhaust temperature 65° C., process time 60 min
  Leaching of active ingredient (in ppm): 7 ppm
[1]; solution dosage 1.00% o.w.f, exhaust temperature 70° C., process time 60 min
  Leaching of active ingredient (in ppm): 4 ppm
[1]; solution dosage 1.00% o.w.f, exhaust temperature 75° C., process time 60 min
  Leaching of active ingredient (in ppm): 3 ppm
[1]; solution dosage 1.00% o.w.f, exhaust temperature 80° C., process time 60 min
  Leaching of active ingredient (in ppm): 1.5 ppm
[1]; solution dosage 1.00% o.w.f, exhaust temperature 85° C., process time 60 min
  Leaching of active ingredient (in ppm): 8 ppm
[1]; solution dosage 1.00% o.w.f, exhaust temperature 90° C., process time 60 min
  Leaching of active ingredient (in ppm): 9 ppm
[1]; solution dosage 1.00% o.w.f, exhaust temperature 95° C., process time 60 min
  Leaching of active ingredient (in ppm): 9 ppm
[2]
  Extracted water Conc, ppm: BDL (BDL-below detection limit Detection limit: 1 parts per million (ppm))
